Test results from US6423823B1, “Organic chemical compounds and method for producing the same” (Bayer Aktiengesellschaft, priority 1997, dated 2002).
Numbered stars: 1 amine (or outer) side, 2 acyl side, 3 side chain; on linkers, the order of the positions; unused ones are H or OH. Square brackets hold non-standard residues; d marks the D form. Peptide text beside a SMILES is read from it. ξ: configuration not given here. X1 = CC(OC(=O)CC(C)(C)O)C(C)C(C(=O)[*:2])N(C)[*:1]; X4 = CC(=O)OC(C)C(C)C(C(=O)[*:2])N(C)[*:1]; X3 = O=C(C1CC2(O)c3ccccc3NC2N1[*:1])[*:2]; ξNMeVal(3-OH) = CNC(C(=O)O)C(C)(C)O; NMeξGly(OAc) = CNC(OC(C)=O)C(=O)O; NMeI = CC[CH](C)[CH](NC)C(=O)O; X2 = CN(C(O)C(=O)[*:2])[*:1]; NMeV = CN[CH](C(=O)O)C(C)C; Sar = CNCC(=O)O

Columns and labels:
Spodoptera frugiperda = assay: Insecticidal maize leaf test; assay type: in vivo; conditions: lethal dose for 50% of larvae, third larval stage, after 72 hours
Description: Test Insect: Spodoptera frugiperda
Test method: A rectangle (1.5×2 cm) cut from maize leaves (8-10 day-old plant, variety Golda) is placed in a Petri dish (diameter 5.5 cm, Greiner). The test substance, as a methanolic solution, is applied to the maize leaf and, after the solvent has evaporated, a filter disc (diameter 13 mm, Schleicher und Schüll) saturated with water and a larva of the third larval stage are added. The larva is placed next to the piece of leaf. The experiment is incubated at 24° C. After 48 hours, untreated maize (1.5×2 cm) is added. The feed behaviour and the state of the larvae are evaluated after 24, 48 and 72 hours. Per test concentration, 4 experiments and 3 repetitions are carried out. The insecticidal effect is stated as LD50 (lethal dose for 50% of larvae) after 72 hours.

Meloidogyne incognita [1] = assay: Effect on nematodes in the greenhouse (test crop: cucumbers); assay type: in vivo; conditions: for Efficacy in %: cucumber plants, after 14 days, 100% = no galls formed; for Number of galls/plant: poured onto cucumber plants, evaluation after 14 days
Description: (§1) Test nematode: Meloidogyne incognita
Test method: In each case two cucumber plants (variety Bella F1) are grown in a soil-leaf mixture in pots of the dimensions 7×7×6 cm. The test substances are, in the appropriate concentrations, dissolved in methanol and then diluted in water and then poured onto the cucumber plants, which are about 14 days old. Per drip, 10 ml of solution are poured on. 3 hours after the treatment, about 500 nematodes are pipetted as a suspension onto each pot. The pots are incubated in a greenhouse at a day temperature of about 26° C. and a night temperature of 20° C. After 14 days, evaluation is carried out by washing out the roots and determining the galls formed per plant.
The efficacy of the test substance is 100% if no galls have been formed, and it is 0% if the same number of galls have been formed as in the control.

Meloidogyne incognita [2] = assay: Nematicidal activity on phytopathogenic nematodes in 24-well tissue culture plates; conditions: lethal dose for 90% of the nematode population, second larval stage, after 16 hours
Description: as §1
Test method: The test substances are dissolved in methanol and pipetted into the wells of tissue culture plates (24-well tray). The solvent is evaporated, and 400 μl of nematode suspension are then added to each well of the tissue culture plate. The number of nematodes is 100 larvae of the second larval stage/400 μl . To promote the solubility of the samples in aqueous medium, the plate is shaken at 100 rpm for 15 minutes, and a first microscopic control is then carried out. After 16 hours, the percentage of dead larvae is determined and stated as LD90 (lethal dose for 90% of the nematode population).

Phaedon cochleariae = assay: Insecticidal leaf disc test (savoy cabbage); assay type: in vivo; conditions: lethal dose for 100% of the larvae tested, third larval stage, after 96 hours
Description: Test insect: Phaedon cochleariae
(§2) Test method: Using a cork borer, 2 discs having a diameter of 10 mm are punched out of savoy cabbage leaves and placed in a Petri dish (diameter 5.5 cm, Greiner). The test substance is pipetted onto the leaf discs and, after the solvent has evaporated, a filter disc (diameter 13 mm, Schleicher und Schull) saturated in water and 2 freshly hatched larvae of the third larval stage are added. The larvae are placed next to the leaf discs. The experiment is incubated at 24° C. After 48 hours, an untreated savoy cabbage disc (10 mm Ø) is added. The feed behaviour and the state of the larvae are evaluated after 24, 48, 72 and 96 hours. Per test concentration, 2 experiments and 3 repetitions are carried out. The insecticidal effect is stated as LD100 (lethal dose for 100% of the larvae tested) after 96 hours.

Plutella xylostella = assay: Insecticidal leaf disc test (savoy cabbage); assay type: in vivo; conditions: lethal dose for 100% of the larvae tested, third larval stage, after 72 hours
Description: Test insect: Plutella xylostella
as §2, with “Schüll)” for “Schull)”, “48 and” for “48,”, “72” for “72 and 96”, “72” for “96”

Trichinella spiralis = assay: In vitro test against Trichinella spiralis; conditions: concentration of 1 μg/ml
Description: The test was carried out according to the test description in the publication Plant et al. (1996) Pesticide Science 48: 351-358.

Heterakis spumosa = assay: In vivo mouse model, intestinal nematode; conditions: dosage of 50 mg/kg
Description: In the in vivo mouse model, omphalotin B has full activity against the intestinal nematode Heterakis spumosa at a dosage of 50 mg/kg. The test is described in the above publication.

| SMILES | Insecticidal activity against Spodoptera frugiperda LD50 (Spodoptera frugiperda) [μg/maize leaf] | Efficacy in % (Meloidogyne incognita [1]; 2 ppm) [%] | Number of galls/plant (Meloidogyne incognita [1]; 2 ppm) | Efficacy in % (Meloidogyne incognita [1]; 5 ppm) [%] | Number of galls/plant (Meloidogyne incognita [1]; 5 ppm) | Nematicidal activity against Meloidogyne incognita LD90 (Meloidogyne incognita [2]) [µg/mL] | Insecticidal activity against Phaedon cochleariae LD100 (Phaedon cochleariae) [μg/leaf disc] | Insecticidal activity against Plutella xylostella LD100 (Plutella xylostella) [μg/leaf disc] | Effect against Trichinella spiralis in vitro (Trichinella spiralis) | Activity against the intestinal nematode Heterakis spumosa (Heterakis spumosa) |
| --- | --- | --- | --- | --- | --- | --- | --- | --- | --- | --- |
| CCC(C)C1NC(=O)C(C(C)C)N(C)C(=O)C2CC3(O)c4ccccc4NC3N2C(=O)CN(C)C(=O)C(C(C)CC)N(C)C(=O)C(C(C)C)NC(=O)C(OC(C)=O)N(C)C(=O)C(C(C)C(C)OC(=O)CC(C)(C)O)N(C)C(=O)C(C(C)(C)O)N(C)C(=O)CN(C)C(=O)C(C(C)C)N(C)C(=O)C(C(C)C)N(C)C1=O (centres unmarked) [Omphalotin C] (cyclo([Sar][ξNMeVal(3-OH)][X1][NMeξGly(OAc)]V[NMeI][Sar][X3][NMeV]I[NMeV][NMeV]); configuration not given here) | 100 | 99 | 1 | 100 | 0 | 1 | – | – | – | – |
| CCC(C)C1NC(=O)C(C(C)C)N(C)C(=O)C2CC3(O)c4ccccc4NC3N2C(=O)CN(C)C(=O)C(C(C)CC)N(C)C(=O)C(C(C)C)NC(=O)C(OC(C)=O)N(C)C(=O)C(C(C)C(C)OC(C)=O)N(C)C(=O)C(C(C)(C)O)N(C)C(=O)CN(C)C(=O)C(C(C)C)N(C)C(=O)C(C(C)C)N(C)C1=O (centres unmarked) [Omphalotin D] (cyclo([Sar][ξNMeVal(3-OH)][X4][NMeξGly(OAc)]V[NMeI][Sar][X3][NMeV]I[NMeV][NMeV]); configuration not given here) | 80 | – | – | – | – | 4 | 100 | 100 | – | – |
| CCC(C)C1NC(=O)C(C(C)C)N(C)C(=O)C2CC3(O)c4ccccc4NC3N2C(=O)CN(C)C(=O)C(C(C)CC)N(C)C(=O)C(C(C)C)NC(=O)C(O)N(C)C(=O)C(C(C)C(C)OC(=O)CC(C)(C)O)N(C)C(=O)C(C(C)(C)O)N(C)C(=O)CN(C)C(=O)C(C(C)C)N(C)C(=O)C(C(C)C)N(C)C1=O (centres unmarked) [Omphalotin B] (cyclo([Sar][ξNMeVal(3-OH)][X1][X2]V[NMeI][Sar][X3][NMeV]I[NMeV][NMeV]); configuration not given here) | – | 99 | 1 | 100 | 0 | 2.5 | – | – | full effect | full activity |
